From the kinase profiling compilation of Christmann-Franck et al. (2016)
Blank lines part the entries; values can stand above or below the compound they belong to.

What was measured:
Assay in all cases: radiometric filter-binding kinase assay
[1] = tested on: AKT1 (human), P31749 [S473D]
[2] = tested on: AKT2 (human), P31751 [S474D]
BRSK2 (human) = BRSK2 (human) (UniProt Q8IWQ3)
CAMKK2 (human) = CAMKK2 (human) (UniProt Q96RR4)
CDK2 CCNA2 (human) = CDK2 CCNA2 (human) (UniProt P20248+P24941)
CSK (human) = CSK (human) (UniProt P41240)
CSNK2A1 (human) = CSNK2A1 (human) (UniProt P68400)
HIPK2 (human) = HIPK2 (human) (UniProt Q9H2X6)
IKBKE (human) = IKBKE (human) (UniProt Q14164)
Chain of IKBKE (human) (Q14164 whole entry, looked up): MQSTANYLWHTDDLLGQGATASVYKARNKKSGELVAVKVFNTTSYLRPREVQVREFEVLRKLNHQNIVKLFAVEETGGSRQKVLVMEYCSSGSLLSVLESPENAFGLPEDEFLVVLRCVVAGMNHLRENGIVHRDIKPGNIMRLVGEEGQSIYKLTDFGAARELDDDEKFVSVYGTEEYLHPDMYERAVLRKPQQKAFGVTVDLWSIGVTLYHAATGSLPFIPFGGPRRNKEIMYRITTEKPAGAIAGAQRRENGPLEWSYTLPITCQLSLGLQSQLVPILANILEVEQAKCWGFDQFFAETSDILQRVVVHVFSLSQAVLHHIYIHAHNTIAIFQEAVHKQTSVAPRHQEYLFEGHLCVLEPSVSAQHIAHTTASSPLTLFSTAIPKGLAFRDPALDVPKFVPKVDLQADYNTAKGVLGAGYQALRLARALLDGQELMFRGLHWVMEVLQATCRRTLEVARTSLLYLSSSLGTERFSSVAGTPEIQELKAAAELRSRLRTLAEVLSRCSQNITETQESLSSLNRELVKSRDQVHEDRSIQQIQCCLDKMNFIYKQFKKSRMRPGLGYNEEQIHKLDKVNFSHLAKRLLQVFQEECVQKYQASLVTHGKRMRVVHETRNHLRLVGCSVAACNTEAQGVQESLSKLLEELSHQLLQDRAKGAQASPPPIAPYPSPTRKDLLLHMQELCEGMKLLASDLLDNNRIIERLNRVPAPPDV

INSRR (human) = INSRR (human) (UniProt P14616)
MAP2K1 (human) = MAP2K1 (human) (UniProt Q02750)
Chain of MAP2K1 (human) (Q02750 whole entry, looked up): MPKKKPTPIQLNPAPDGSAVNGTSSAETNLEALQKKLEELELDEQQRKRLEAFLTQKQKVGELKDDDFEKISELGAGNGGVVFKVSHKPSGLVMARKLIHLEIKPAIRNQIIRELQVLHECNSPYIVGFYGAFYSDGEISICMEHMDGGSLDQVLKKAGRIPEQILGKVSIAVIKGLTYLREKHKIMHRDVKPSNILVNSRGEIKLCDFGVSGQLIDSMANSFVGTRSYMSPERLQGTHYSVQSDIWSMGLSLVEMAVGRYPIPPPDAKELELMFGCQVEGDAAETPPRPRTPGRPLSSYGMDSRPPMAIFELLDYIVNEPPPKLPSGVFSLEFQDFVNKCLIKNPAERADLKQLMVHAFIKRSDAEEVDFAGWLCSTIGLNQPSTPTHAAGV

MAPK1 (human) = MAPK1 (human) (UniProt P28482)
Chain of MAPK1 (human) (P28482 whole entry, looked up): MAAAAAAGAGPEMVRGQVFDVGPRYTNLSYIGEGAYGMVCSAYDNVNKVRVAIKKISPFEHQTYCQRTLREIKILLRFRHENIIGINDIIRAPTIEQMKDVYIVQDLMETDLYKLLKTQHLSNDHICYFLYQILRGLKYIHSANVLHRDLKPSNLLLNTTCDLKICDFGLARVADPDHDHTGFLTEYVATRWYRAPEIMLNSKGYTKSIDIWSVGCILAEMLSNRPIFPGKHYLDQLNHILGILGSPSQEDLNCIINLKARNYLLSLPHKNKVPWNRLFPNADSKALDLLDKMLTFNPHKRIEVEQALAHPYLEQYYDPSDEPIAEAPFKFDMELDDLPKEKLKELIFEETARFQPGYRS

MAPK11 (human) = MAPK11 (human) (UniProt Q15759)
MAPK12 (human) = MAPK12 (human) (UniProt P53778)
MAPK14 (human) = MAPK14 (human) (UniProt Q16539)
MAPK15 (human) = MAPK15 (human) (UniProt Q8TD08)
MAPK3 (human) = MAPK3 (human) (UniProt P27361)
MAPK8 (human) = MAPK8 (human) (UniProt P45983)
MAPK9 (human) = MAPK9 (human) (UniProt P45984)
MELK (human) = MELK (human) (UniProt Q14680)
MKNK2 (human) = MKNK2 (human) (UniProt Q9HBH9)
NEK2 (human) = NEK2 (human) (UniProt P51955)
Chain of NEK2 (human) (P51955 whole entry, looked up): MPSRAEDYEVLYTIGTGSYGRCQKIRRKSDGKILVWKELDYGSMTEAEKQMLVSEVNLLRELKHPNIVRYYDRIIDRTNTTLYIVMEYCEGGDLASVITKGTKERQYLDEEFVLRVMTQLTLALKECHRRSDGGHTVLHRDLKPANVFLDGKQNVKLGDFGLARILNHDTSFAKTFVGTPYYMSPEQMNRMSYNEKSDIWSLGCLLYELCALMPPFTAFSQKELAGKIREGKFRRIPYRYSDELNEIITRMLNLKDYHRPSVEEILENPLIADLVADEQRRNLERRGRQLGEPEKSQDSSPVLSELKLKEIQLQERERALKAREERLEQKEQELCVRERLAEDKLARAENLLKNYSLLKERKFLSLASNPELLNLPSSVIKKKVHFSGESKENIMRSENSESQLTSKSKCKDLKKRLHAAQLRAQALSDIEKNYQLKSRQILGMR

NEK6 (human) = NEK6 (human) (UniProt Q9HC98)
Chain of NEK6 (human) (Q9HC98 whole entry, looked up): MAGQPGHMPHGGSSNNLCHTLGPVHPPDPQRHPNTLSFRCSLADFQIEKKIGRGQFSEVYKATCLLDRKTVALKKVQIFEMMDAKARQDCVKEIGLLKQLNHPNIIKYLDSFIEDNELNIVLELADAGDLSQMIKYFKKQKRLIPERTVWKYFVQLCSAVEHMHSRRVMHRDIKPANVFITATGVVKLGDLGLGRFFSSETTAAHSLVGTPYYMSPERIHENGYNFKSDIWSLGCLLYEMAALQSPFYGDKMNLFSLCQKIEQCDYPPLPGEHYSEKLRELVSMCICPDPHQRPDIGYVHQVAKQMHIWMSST

PAK6 (human) = PAK6 (human) (UniProt Q9NQU5)
Chain of PAK6 (human) (Q9NQU5 whole entry, looked up): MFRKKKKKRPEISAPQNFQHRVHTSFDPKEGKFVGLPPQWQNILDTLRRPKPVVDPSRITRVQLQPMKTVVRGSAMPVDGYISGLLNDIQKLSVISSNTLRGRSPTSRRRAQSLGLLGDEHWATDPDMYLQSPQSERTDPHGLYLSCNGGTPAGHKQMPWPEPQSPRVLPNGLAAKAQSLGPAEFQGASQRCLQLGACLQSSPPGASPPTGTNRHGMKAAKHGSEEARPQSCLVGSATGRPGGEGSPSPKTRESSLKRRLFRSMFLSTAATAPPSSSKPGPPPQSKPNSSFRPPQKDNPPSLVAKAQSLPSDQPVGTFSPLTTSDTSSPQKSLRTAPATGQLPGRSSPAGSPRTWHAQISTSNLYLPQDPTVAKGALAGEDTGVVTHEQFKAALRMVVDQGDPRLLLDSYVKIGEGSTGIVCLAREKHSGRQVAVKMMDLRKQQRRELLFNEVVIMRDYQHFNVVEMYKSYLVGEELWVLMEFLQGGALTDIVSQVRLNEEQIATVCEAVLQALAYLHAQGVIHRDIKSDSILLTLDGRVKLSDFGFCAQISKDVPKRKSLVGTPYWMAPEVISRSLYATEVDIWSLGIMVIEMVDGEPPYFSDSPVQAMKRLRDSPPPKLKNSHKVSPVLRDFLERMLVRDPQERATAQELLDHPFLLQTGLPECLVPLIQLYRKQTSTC

PAK7 (human) = PAK7 (human) (UniProt Q9P286)
Chain of PAK7 (human) (Q9P286 whole entry, looked up): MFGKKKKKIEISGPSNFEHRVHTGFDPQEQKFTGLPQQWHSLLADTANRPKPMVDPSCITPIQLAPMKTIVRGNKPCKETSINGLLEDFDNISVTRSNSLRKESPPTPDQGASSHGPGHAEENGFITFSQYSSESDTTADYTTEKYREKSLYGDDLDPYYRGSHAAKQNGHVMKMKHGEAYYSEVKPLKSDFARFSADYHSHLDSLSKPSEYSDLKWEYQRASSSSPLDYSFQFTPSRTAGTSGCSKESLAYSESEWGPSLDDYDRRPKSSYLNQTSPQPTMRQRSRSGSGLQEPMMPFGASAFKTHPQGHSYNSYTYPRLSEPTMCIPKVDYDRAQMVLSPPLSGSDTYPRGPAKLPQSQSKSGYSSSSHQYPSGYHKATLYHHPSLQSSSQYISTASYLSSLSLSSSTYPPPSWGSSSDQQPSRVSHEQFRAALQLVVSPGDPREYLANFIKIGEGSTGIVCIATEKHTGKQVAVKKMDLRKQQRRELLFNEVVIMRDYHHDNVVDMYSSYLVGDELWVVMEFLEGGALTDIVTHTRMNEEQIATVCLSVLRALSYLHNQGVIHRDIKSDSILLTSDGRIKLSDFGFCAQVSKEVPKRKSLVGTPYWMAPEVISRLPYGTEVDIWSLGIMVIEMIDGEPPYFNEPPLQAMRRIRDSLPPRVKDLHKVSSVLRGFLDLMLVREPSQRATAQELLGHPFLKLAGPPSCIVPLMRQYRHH

PHKG1 (human) = PHKG1 (human) (UniProt Q16816)
Chain of PHKG1 (human) (Q16816 whole entry, looked up): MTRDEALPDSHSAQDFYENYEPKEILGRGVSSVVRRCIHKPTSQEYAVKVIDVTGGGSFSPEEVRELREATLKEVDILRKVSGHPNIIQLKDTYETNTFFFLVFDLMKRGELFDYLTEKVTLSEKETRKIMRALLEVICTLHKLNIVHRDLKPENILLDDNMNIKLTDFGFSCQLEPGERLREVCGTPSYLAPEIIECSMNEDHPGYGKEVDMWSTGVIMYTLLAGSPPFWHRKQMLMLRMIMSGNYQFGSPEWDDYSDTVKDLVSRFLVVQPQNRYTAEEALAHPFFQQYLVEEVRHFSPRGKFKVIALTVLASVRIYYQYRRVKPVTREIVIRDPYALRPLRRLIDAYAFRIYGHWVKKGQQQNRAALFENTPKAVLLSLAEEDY

PIM1 (human) = PIM1 (human) (UniProt P11309)
Chain of PIM1 (human) (P11309 whole entry, looked up): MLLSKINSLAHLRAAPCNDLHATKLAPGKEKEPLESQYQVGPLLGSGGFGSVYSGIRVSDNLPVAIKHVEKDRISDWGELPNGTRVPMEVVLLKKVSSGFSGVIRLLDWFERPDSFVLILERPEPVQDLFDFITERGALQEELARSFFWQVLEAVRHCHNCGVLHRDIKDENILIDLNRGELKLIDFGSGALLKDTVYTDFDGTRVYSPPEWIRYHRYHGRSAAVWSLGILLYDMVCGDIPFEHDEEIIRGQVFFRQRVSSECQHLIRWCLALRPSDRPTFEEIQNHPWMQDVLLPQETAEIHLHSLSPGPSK

PIM2 (human) = PIM2 (human) (UniProt Q9P1W9)
Chain of PIM2 (human) (Q9P1W9 whole entry, looked up): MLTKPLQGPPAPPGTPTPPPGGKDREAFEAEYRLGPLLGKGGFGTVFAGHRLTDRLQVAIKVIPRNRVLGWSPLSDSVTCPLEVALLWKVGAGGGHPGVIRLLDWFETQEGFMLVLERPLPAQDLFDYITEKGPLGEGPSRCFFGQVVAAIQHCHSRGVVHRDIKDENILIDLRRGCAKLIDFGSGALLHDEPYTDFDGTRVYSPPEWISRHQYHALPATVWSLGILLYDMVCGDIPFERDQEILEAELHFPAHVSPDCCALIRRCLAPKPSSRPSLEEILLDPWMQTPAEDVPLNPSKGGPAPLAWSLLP

PIM3 (human) = PIM3 (human) (UniProt Q86V86)
[3] = tested on: PINK1 (Tribolium castaneum); details: accession and sequence are those of the human protein
PKN2 (human) = PKN2 (human) (UniProt Q16513)
PLK1 (human) = PLK1 (human) (UniProt P53350)
PRKACA (human) = PRKACA (human) (UniProt P17612)
ROCK2 (rat) = details: accession and sequence are those of the human protein
RPS6KA3 KD1 KD2 (human) = RPS6KA3 KD1 KD2 (human) (UniProt P51812)
[4] = tested on: SGK1 (human), O00141 [S422D]
SRPK1 (human) = SRPK1 (human) (UniProt Q96SB4)
SYK (human) = SYK (human) (UniProt P43405)
TBK1 (human) = TBK1 (human) (UniProt Q9UHD2)
YES1 (human) = YES1 (human) (UniProt P07947)

residual activity ([1]; compound 1.0 µM): 90% | residual activity ([2]; compound 1.0 µM): 61% | residual activity (BRSK2 (human); compound 1.0 µM): 66% | residual activity (CAMKK2 (human); compound 1.0 µM): 76% | residual activity (CDK2 CCNA2 (human); compound 1.0 µM): 51% | residual activity (CSK (human); compound 1.0 µM): 98% | IC50 (CSNK2A1 (human)): 4 µM | residual activity (CSNK2A1 (human); compound 1.0 µM): 87% | residual activity (HIPK2 (human); compound 1.0 µM): 17% | residual activity (IKBKE (human); compound 1.0 µM): 81% | residual activity (INSRR (human); compound 1.0 µM): 24% | residual activity (MAP2K1 (human); compound 1.0 µM): 94% | residual activity (MAPK1 (human); compound 1.0 µM): 106% | residual activity (MAPK11 (human); compound 1.0 µM): 87% | residual activity (MAPK12 (human); compound 1.0 µM): 82% | residual activity (MAPK14 (human); compound 1.0 µM): 83% | residual activity (MAPK3 (human); compound 1.0 µM): 86% | residual activity (MAPK8 (human); compound 1.0 µM): 81% | residual activity (MAPK9 (human); compound 1.0 µM): 102% | residual activity (MELK (human); compound 1.0 µM): 20% | residual activity (MKNK2 (human); compound 1.0 µM): 55% | residual activity (NEK2 (human); compound 1.0 µM): 98% | residual activity (NEK6 (human); compound 1.0 µM): 77% | residual activity (PAK6 (human); compound 1.0 µM): 121% | residual activity (PAK7 (human); compound 1.0 µM): 94% | residual activity (PHKG1 (human); compound 1.0 µM): 45% | residual activity (PIM1 (human); compound 1.0 µM): 10% | residual activity (PIM2 (human); compound 1.0 µM): 40% | residual activity (PIM3 (human); compound 1.0 µM): 17% | residual activity ([3]; compound 1.0 µM): 80% | residual activity (PKN2 (human); compound 1.0 µM): 35% | residual activity (PLK1 (human); compound 1.0 µM): 104% | residual activity (PRKACA (human); compound 1.0 µM): 101% | residual activity (ROCK2 (rat); compound 1.0 µM): 92% | residual activity (RPS6KA3 KD1 KD2 (human); compound 1.0 µM): 40% | residual activity ([4]; compound 1.0 µM): 80% | residual activity (SRPK1 (human); compound 1.0 µM): 83% | residual activity (SYK (human); compound 1.0 µM): 84% | residual activity (TBK1 (human); compound 1.0 µM): 80% | residual activity (YES1 (human); compound 1.0 µM): 95%
SMILES: Oc1ccc2c(c1)oc1c3ccccc3c(O)cc21
residual activity (MAPK15 (human); compound 1.0 µM): 37%

SMILES: COc1ccc2c(c1)[nH]c1c(C)nccc12
residual activity ([1]; compound 1.0 µM): 100% | residual activity ([2]; compound 1.0 µM): 84% | residual activity (BRSK2 (human); compound 1.0 µM): 107% | residual activity (CAMKK2 (human); compound 1.0 µM): 97% | residual activity (CDK2 CCNA2 (human); compound 1.0 µM): 80% | residual activity (CSK (human); compound 1.0 µM): 103% | IC50 (CSNK2A1 (human)): > 40 µM | residual activity (CSNK2A1 (human); compound 1.0 µM): 83% | residual activity (HIPK2 (human); compound 1.0 µM): 68% | residual activity (IKBKE (human); compound 1.0 µM): 83% | residual activity (INSRR (human); compound 1.0 µM): 23% | residual activity (MAP2K1 (human); compound 1.0 µM): 102% | residual activity (MAPK1 (human); compound 1.0 µM): 100% | residual activity (MAPK11 (human); compound 1.0 µM): 92% | residual activity (MAPK12 (human); compound 1.0 µM): 67% | residual activity (MAPK14 (human); compound 1.0 µM): 77% | residual activity (MAPK15 (human); compound 1.0 µM): 75% | residual activity (MAPK3 (human); compound 1.0 µM): 102% | residual activity (MAPK8 (human); compound 1.0 µM): 70% | residual activity (MAPK9 (human); compound 1.0 µM): 84% | residual activity (MELK (human); compound 1.0 µM): 93% | residual activity (MKNK2 (human); compound 1.0 µM): 84% | residual activity (NEK2 (human); compound 1.0 µM): 115% | residual activity (NEK6 (human); compound 1.0 µM): 88% | residual activity (PAK6 (human); compound 1.0 µM): 107% | residual activity (PAK7 (human); compound 1.0 µM): 90% | residual activity (PHKG1 (human); compound 1.0 µM): 84% | residual activity (PIM1 (human); compound 1.0 µM): 74% | residual activity (PIM2 (human); compound 1.0 µM): 101% | residual activity (PIM3 (human); compound 1.0 µM): 74% | residual activity ([3]; compound 1.0 µM): 98% | residual activity (PKN2 (human); compound 1.0 µM): 61% | residual activity (PLK1 (human); compound 1.0 µM): 96% | residual activity (PRKACA (human); compound 1.0 µM): 104% | residual activity (ROCK2 (rat); compound 1.0 µM): 102% | residual activity (RPS6KA3 KD1 KD2 (human); compound 1.0 µM): 78% | residual activity ([4]; compound 1.0 µM): 78% | residual activity (SRPK1 (human); compound 1.0 µM): 78% | residual activity (SYK (human); compound 1.0 µM): 93% | residual activity (TBK1 (human); compound 1.0 µM): 87% | residual activity (YES1 (human); compound 1.0 µM): 100%

residual activity ([1]; compound 20.0 µM): 115% | residual activity ([2]; compound 20.0 µM): 80% | residual activity (BRSK2 (human); compound 20.0 µM): 96% | residual activity (CAMKK2 (human); compound 20.0 µM): 91% | residual activity (CDK2 CCNA2 (human); compound 20.0 µM): 54% | residual activity (CSK (human); compound 20.0 µM): 98% | IC50 (CSNK2A1 (human)): > 40 µM | residual activity (CSNK2A1 (human); compound 20.0 µM): 52% | residual activity (HIPK2 (human); compound 20.0 µM): 62% | residual activity (IKBKE (human); compound 20.0 µM): 103% | residual activity (INSRR (human); compound 20.0 µM): 47% | residual activity (MAP2K1 (human); compound 20.0 µM): 122% | residual activity (MAPK1 (human); compound 20.0 µM): 101% | residual activity (MAPK11 (human); compound 20.0 µM): 106% | residual activity (MAPK12 (human); compound 20.0 µM): 85% | residual activity (MAPK14 (human); compound 20.0 µM): 84% | residual activity (MAPK3 (human); compound 20.0 µM): 100% | residual activity (MAPK8 (human); compound 20.0 µM): 97% | residual activity (MAPK9 (human); compound 20.0 µM): 99% | residual activity (MELK (human); compound 20.0 µM): 70% | residual activity (MKNK2 (human); compound 20.0 µM): 65% | residual activity (NEK2 (human); compound 20.0 µM): 84% | residual activity (NEK6 (human); compound 20.0 µM): 78% | residual activity (PAK6 (human); compound 20.0 µM): 90% | residual activity (PAK7 (human); compound 20.0 µM): 64% | residual activity (PHKG1 (human); compound 20.0 µM): 77% | residual activity (PIM1 (human); compound 20.0 µM): 19% | residual activity (PIM2 (human); compound 20.0 µM): 66% | residual activity (PIM3 (human); compound 20.0 µM): 21% | residual activity ([3]; compound 20.0 µM): 68% | residual activity (PKN2 (human); compound 20.0 µM): 86% | residual activity (PLK1 (human); compound 20.0 µM): 66% | residual activity (PRKACA (human); compound 20.0 µM): 76% | residual activity (ROCK2 (rat); compound 20.0 µM): 78% | residual activity (RPS6KA3 KD1 KD2 (human); compound 20.0 µM): 80% | residual activity ([4]; compound 20.0 µM): 70% | residual activity (SRPK1 (human); compound 20.0 µM): 80% | residual activity (SYK (human); compound 20.0 µM): 121% | residual activity (TBK1 (human); compound 20.0 µM): 123% | residual activity (YES1 (human); compound 20.0 µM): 72%
SMILES: Oc1ccc2c(c1)C(O)c1cc(O)ccc1-2
residual activity (MAPK15 (human); compound 20.0 µM): 25%
